According to patent US20250296971A1, “GASTRIC INHIBITORY PEPTIDE RECEPTOR LIGANDS” (priority 2021, published 2025):
*1 amine or outer side, *2 acyl side, *3 side chain or, on linkers, in order; H or OH if unused. Where a SMILES comes first, the peptide text is derived from it. Bridges are numbered along the chain shown (N, C = ends). Primed or numbered codes have the meaning given here. [ ]: non-standard residue; d: D form. The star is where a group is joined. DOTA = O=C(O)CN1CCN(CC(=O)O)CCN(CC(=O)*)CCN(CC(=O)O)CC1; 2Lut = 2,6-lutidylidene bridge between two thiols; Trp(5-Cl) = N[C@@H](Cc1c[nH]c2ccc(Cl)cc12)C(=O)O; Phe(3,4-Cl2) = N[C@@H](Cc1ccc(Cl)c(Cl)c1)C(=O)O; Pyridine(2,6-diCH2) = c1cc(C[*:1])nc(C[*:2])c1; Phe(2,4-Cl2) = N[C@@H](Cc1ccc(Cl)cc1Cl)C(=O)O; X10 = O=C(CN(CC(=O)NC(CO)CO)CC(=O)*)NC(CO)CO; 2Lut″ = 2,6-lutidylidene linking two thiols; Phe(3-Cl) = N[C@@H](Cc1cccc(Cl)c1)C(=O)O; Phe(4-Cl) = N[C@@H](Cc1ccc(Cl)cc1)C(=O)O; Pro(4R-NH2) = N[C@H]1CN[C@H](C(=O)O)C1; Thz(5,5-Me2) = CC1(C)SCN[C@@H]1C(=O)O; Ser(ΨH,HPro) = O=C(O)[C@@H]1COCN1; Hyp = O=C(O)[C@@H]1C[C@@H](O)CN1; X1 = O=C(CN1CCC(N[*:1])CC1)[*:2]; hArg = N=C(N)NCCCC[C@H](N)C(=O)O; NMeE = CN[C@@H](CCC(=O)O)C(=O)O; pS = N[C@@H](COP(=O)(O)O)C(=O)O; hLys = NCCCCC[C@H](N)C(=O)O; NHCH(CH2OH)2 = OCC(CO)N*; Api = NC1(C(=O)O)CCNCC1; Thp = NC1(C(=O)O)CCOCC1

How the values were obtained:
[1] = target: T1, human GIP receptor (bioGIPR) (Homo sapiens, UniProt P48546); assay: Surface plasmon resonance (SPR) based binding assay; settings: Single Cycle Kinetic mode, 25° C.; for t1/2 Category: SPR dissociation half-life; for Kd: SPR, 1:1 Langmuir binding model, read-out: pKD Category (converted)
T1 construct: Biotinylate extracellular of the human GIP receptor (bioGIPR, Proteros biostructures GmbH, lot #02/2b); purchased Proteros biostructures GmbH lot #02/2b
T1 sequence (P48546 22-138 limits assumed): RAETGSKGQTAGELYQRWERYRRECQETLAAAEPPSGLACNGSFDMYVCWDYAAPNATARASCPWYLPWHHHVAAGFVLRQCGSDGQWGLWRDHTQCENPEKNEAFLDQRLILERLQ
In short: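 Binding was measured at 25 °C by single-cycle kinetics against a reference flow cell, with blank-run and drift correction, after capturing biotinylated GIPR extracellular domain to ~3500 RU. Running buffer: HBST, 0.1% DMSO. A 1:1 Langmuir model gave kinetic rates, KD, t1/2 and pKD.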

[2] = target: T2, GIPR (CHO-K1-hGIPR cells) (Homo sapiens, UniProt P48546); assay: FACS binding assay; settings: competition with 20 nM GIP-057, 4° C. for 1 hour, read-out: pIC50 Category (converted)
T2 construct: host or cells: CHO-K1
T2 sequence (P48546 22-466): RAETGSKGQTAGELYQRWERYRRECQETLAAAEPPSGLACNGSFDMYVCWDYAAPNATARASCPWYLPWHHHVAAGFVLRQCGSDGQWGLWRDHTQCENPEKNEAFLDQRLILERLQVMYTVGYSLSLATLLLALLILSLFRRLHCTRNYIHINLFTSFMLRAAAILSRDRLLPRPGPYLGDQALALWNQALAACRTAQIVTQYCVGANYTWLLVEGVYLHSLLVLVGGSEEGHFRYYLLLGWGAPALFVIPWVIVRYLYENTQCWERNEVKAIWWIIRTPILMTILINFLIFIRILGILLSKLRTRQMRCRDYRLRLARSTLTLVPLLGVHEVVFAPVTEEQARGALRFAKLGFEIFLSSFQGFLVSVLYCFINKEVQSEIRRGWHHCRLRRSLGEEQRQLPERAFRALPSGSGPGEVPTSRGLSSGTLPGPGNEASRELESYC
In short: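 Median fluorescence in the APC channel, measured on washed CHO-K1 cells overexpressing human GIPR, was fitted by four-parameter logistic regression against peptide concentration to yield EC50 or IC50 values. Secondary labelling used APC-streptavidin (1 μg/mL, 30 min, ice).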

[3] = target: human Gastric Inhibitory Peptide Receptor (GIPR) (human) (UniProt P48546); assay: FACS competition vs biotinylated GIP-057 on CHO-K1-hGIPR cells; category A: pIC50 >8.0

Molecule | t1/2 Category [1] | Kd [1] | IC50 [2] | pIC50 [3]
CC[C@H](C)[C@@H]1NC(=O)[C@H](CC(C)C)NC(=O)C2(CCN(C(=O)CN3CCN(CC(=O)O)CCN(CC(=O)O)CCN(CC(=O)O)CC3)CC2)NC(=O)[C@@H](NC(=O)[C@@H](CC(C)C)NC(=O)[C@H](CCC(=O)O)NC(=O)[C@@H]2C[C@@H](N)CN2C(=O)[C@H](Cc2c[nH]c3ccc(Cl)cc23)NC(=O)[C@H](Cc2c[nH]c3ccccc23)NC(=O)[C@H](CC(=O)O)NC(=O)CN(CC(=O)NC(CO)CO)CC(=O)NC(CO)CO)CSCc2cccc(n2)CSC[C@@H](C(=O)NC2CCN(CC(=O)N[C@H](CCC(=O)NC(CO)CO)C(=O)NC(CO)CO)CC2)NC1=O [GIP-374, NTASEROL-Asp-Trp-5Clw-Tap-Glu-leu-[Cys(2Lut)-Apc(DOTA)-Leu-Ile-Cys]-APAc-GLUSEROL] (X10-DW[Trp(5-Cl)][Pro(4R-NH2)]E[dL]C[Api](DOTA)LIC[X1][dE](NHCH(CH2OH)2)-{NHCH(CH2OH)2}; linker 7-11 via Pyridine(2,6-diCH2)) | A (t1/2 values>15 min) | < 1 nM | < 10 nM | 
CC[C@H](C)[C@@H]1NC(=O)[C@H](CC(C)C)NC(=O)C2(CCOCC2)NC(=O)[C@@H](NC(=O)[C@@H](CC(C)C)NC(=O)[C@H](CCCCN)NC(=O)[C@@H]2C[C@@H](O)CN2C(=O)[C@H](Cc2c[nH]c3ccc(Cl)cc23)NC(=O)[C@H](Cc2c[nH]c3ccccc23)NC(=O)[C@H](CC(=O)O)NC(C)=O)CSCc2cccc(n2)CSC[C@@H](C(N)=O)NC1=O [GIP-375, Ac-Asp-Trp-5Clw-Hyp-Lys-leu-[Cys(2Lut)-Thp-Leu-Ile-Cys]-NH2] (Ac-DW[Trp(5-Cl)][Hyp]K[dL]C[Thp]LIC-NH2; linker 7-11 via Pyridine(2,6-diCH2)) | A (t1/2 values>15 min) | 1 to 7.94 nM | < 10 nM | 
CC[C@H](C)[C@@H]1NC(=O)[C@H](CC(C)C)NC(=O)C2(CCOCC2)NC(=O)[C@@H](NC(=O)[C@@H](CC(C)C)NC(=O)[C@H](CCCNC(=N)N)NC(=O)[C@@H]2C[C@@H](O)CN2C(=O)[C@H](Cc2c[nH]c3ccc(Cl)cc23)NC(=O)[C@H](Cc2c[nH]c3ccccc23)NC(=O)[C@H](CC(=O)O)NC(C)=O)CSCc2cccc(n2)CSC[C@@H](C(N)=O)NC1=O [GIP-376, Ac-Asp-Trp-5Clw-Hyp-Arg-leu-[Cys(2Lut)-Thp-Leu-Ile-Cys]-NH2] (Ac-DW[Trp(5-Cl)][Hyp]R[dL]C[Thp]LIC-NH2; linker 7-11 via Pyridine(2,6-diCH2)) | A (t1/2 values>15 min) | 1 to 7.94 nM | < 10 nM | 
CC[C@H](C)[C@@H]1NC(=O)[C@H](CC(C)C)NC(=O)C2(CCOCC2)NC(=O)[C@@H](NC(=O)[C@@H](CC(C)C)NC(=O)[C@H](Cc2c[nH]cn2)NC(=O)[C@@H]2C[C@@H](O)CN2C(=O)[C@H](Cc2c[nH]c3ccc(Cl)cc23)NC(=O)[C@H](Cc2c[nH]c3ccccc23)NC(=O)[C@H](CC(=O)O)NC(C)=O)CSCc2cccc(n2)CSC[C@@H](C(N)=O)NC1=O [GIP-377, Ac-Asp-Trp-5Clw-Hyp-His-leu-[Cys(2Lut)-Thp-Leu-Ile-Cys]-NH2] (Ac-DW[Trp(5-Cl)][Hyp]H[dL]C[Thp]LIC-NH2; linker 7-11 via Pyridine(2,6-diCH2)) | A (t1/2 values>15 min) | 1 to 7.94 nM | < 10 nM | 
CC[C@H](C)[C@@H]1NC(=O)[C@H](CC(C)C)NC(=O)C2(CCOCC2)NC(=O)[C@@H](NC(=O)[C@@H](CC(C)C)NC(=O)[C@H](CCCCCN)NC(=O)[C@@H]2C[C@@H](O)CN2C(=O)[C@H](Cc2c[nH]c3ccc(Cl)cc23)NC(=O)[C@H](Cc2c[nH]c3ccccc23)NC(=O)[C@H](CC(=O)O)NC(C)=O)CSCc2cccc(n2)CSC[C@@H](C(N)=O)NC1=O [GIP-378, Ac-Asp-Trp-5Clw-Hyp-Hly-leu-[Cys(2Lut)-Thp-Leu-Ile-Cys]-NH2] (Ac-DW[Trp(5-Cl)][Hyp][hLys][dL]C[Thp]LIC-NH2; linker 7-11 via Pyridine(2,6-diCH2)) | A (t1/2 values>15 min) | 1 to 7.94 nM | < 10 nM | 
CC[C@H](C)[C@@H]1NC(=O)[C@H](CC(C)C)NC(=O)C2(CCOCC2)NC(=O)[C@@H](NC(=O)[C@@H](CC(C)C)NC(=O)[C@H](CCCCNC(=N)N)NC(=O)[C@@H]2C[C@@H](O)CN2C(=O)[C@H](Cc2c[nH]c3ccc(Cl)cc23)NC(=O)[C@H](Cc2c[nH]c3ccccc23)NC(=O)[C@H](CC(=O)O)NC(C)=O)CSCc2cccc(n2)CSC[C@@H](C(N)=O)NC1=O [GIP-395, Ac-Asp-Trp-5Clw-Hyp-Har-leu-[Cys(2Lut)-Thp-Leu-Ile-Cys]-NH2] (Ac-DW[Trp(5-Cl)][Hyp][hArg][dL]C[Thp]LIC-NH2; linker 7-11 via Pyridine(2,6-diCH2)) | A (t1/2 values>15 min) | 1 to 7.94 nM | 10 to 79.4 nM | 
Ac-DW[Trp(5-Cl)][Hyp][NMeE]LC[Thp]LIC-NH2 (linker 7-11 via Pyridine(2,6-diCH2)) [Ac-Asp-Trp-5Clw-Hyp-Nme-Leu-[Cys(2Lut)-Thp-Leu-Ile-Cys]-NH2] |  |  |  | > 8 pic50
Ac-D[Phe(3-Cl)][Trp(5-Cl)][Hyp]E[dL]C[Thp]LIC-NH2 (linker 7-11 via Pyridine(2,6-diCH2); SMILES CC[C@H](C)[C@@H]1NC(=O)[C@H](CC(C)C)NC(=O)C2(CCOCC2)NC(=O)[C@@H](NC(=O)[C@@H](CC(C)C)NC(=O)[C@H](CCC(=O)O)NC(=O)[C@@H]2C[C@@H](O)CN2C(=O)[C@H](Cc2c[nH]c3ccc(Cl)cc23)NC(=O)[C@H](Cc2cccc(Cl)c2)NC(=O)[C@H](CC(=O)O)NC(C)=O)CSCc2cccc(n2)CSC[C@@H](C(N)=O)NC1=O) [Ac-Asp-Mcf-5Clw-Hyp-Glu-leu-[Cys(2Lut)-Thp-Leu-Ile-Cys]-NH2] |  |  |  | > 8 pic50
Ac-D[Phe(3,4-Cl2)][Trp(5-Cl)][Hyp]E[dL]C[Thp]LIC-NH2 (linker 7-11 via Pyridine(2,6-diCH2); SMILES CC[C@H](C)[C@@H]1NC(=O)[C@H](CC(C)C)NC(=O)C2(CCOCC2)NC(=O)[C@@H](NC(=O)[C@@H](CC(C)C)NC(=O)[C@H](CCC(=O)O)NC(=O)[C@@H]2C[C@@H](O)CN2C(=O)[C@H](Cc2c[nH]c3ccc(Cl)cc23)NC(=O)[C@H](Cc2ccc(Cl)c(Cl)c2)NC(=O)[C@H](CC(=O)O)NC(C)=O)CSCc2cccc(n2)CSC[C@@H](C(N)=O)NC1=O) [Ac-Asp-Eaa-5Clw-Hyp-Glu-leu-[Cys(2Lut)-Thp-Leu-Ile-Cys]-NH2] |  |  |  | > 8 pic50
Ac-DW[Phe(3,4-Cl2)][Hyp]E[dL]C[Thp]LIC-NH2 (linker 7-11 via 2Lut″) [Ac-Asp-Trp-Eaa-Hyp-Glu-leu-[Cys(2Lut)-Thp-Leu-Ile-Cys]-NH2] |  |  |  | > 8 pic50
Ac-D[Phe(2,4-Cl2)][Trp(5-Cl)][Hyp]E[dL]C[Thp]LIC-NH2 (linker 7-11 via Pyridine(2,6-diCH2); SMILES CC[C@H](C)[C@@H]1NC(=O)[C@H](CC(C)C)NC(=O)C2(CCOCC2)NC(=O)[C@@H](NC(=O)[C@@H](CC(C)C)NC(=O)[C@H](CCC(=O)O)NC(=O)[C@@H]2C[C@@H](O)CN2C(=O)[C@H](Cc2c[nH]c3ccc(Cl)cc23)NC(=O)[C@H](Cc2ccc(Cl)cc2Cl)NC(=O)[C@H](CC(=O)O)NC(C)=O)CSCc2cccc(n2)CSC[C@@H](C(N)=O)NC1=O) [Ac-Asp-Egm-5Clw-Hyp-Glu-leu-[Cys(2Lut)-Thp-Leu-Ile-Cys]-NH2] |  |  |  | > 8 pic50
{HO‑Glutar}-W[Trp(5-Cl)][Hyp]E[dL]C[Thp]LIC-NH2 (linker 6-10 via 2Lut) [HO-Glutar-Trp-5Clw-Hyp-Glu-leu-[Cys(2Lut)-Thp-Leu-Ile-Cys]-NH2] |  |  |  | > 8 pic50
Ac-DW[Trp(5-Cl)][Thz(5,5-Me2)]E[dL]C[Thp]LIC-NH2 (linker 7-11 via Pyridine(2,6-diCH2)) [Ac-Asp-Trp-5Clw-Dtc-Glu-leu-[Cys(2Lut)-Thp-Leu-Ile-Cys]-NH2] |  |  |  | > 8 pic50
Ac-DW[Trp(5-Cl)][Ser(ΨH,HPro)]E[dL]C[Thp]LIC-NH2 (linker 7-11 via Pyridine(2,6-diCH2)) [Ac-Asp-Trp-5Clw-Oxa-Glu-leu-[Cys(2Lut)-Thp-Leu-Ile-Cys]-NH2] |  |  |  | > 8 pic50
Ac-D[Phe(4-Cl)][Trp(5-Cl)][Hyp]E[dL]C[Thp]LIC-NH2 (linker 7-11 via Pyridine(2,6-diCH2)) [Ac-Asp-Pcf-5Clw-Hyp-Glu-leu-[Cys(2Lut)-Thp-Leu-Ile-Cys]-NH2] |  |  |  | > 8 pic50
Ac-DW[Trp(5-Cl)][Hyp][pS][dL]C[Thp]LIC-NH2 (linker 7-11 via Pyridine(2,6-diCH2)) [Ac-Asp-Trp-5Clw-Hyp-Pse-leu-[Cys(2Lut)-Thp-Leu-Ile-Cys]-NH2] |  |  |  | > 8 pic50
